{"source": "ChEMBL document CHEMBL4033666", "about": "“Synthesis and mechanistic evaluation of novel N'-benzylidene-carbohydrazide-1H-pyrazolo[3,4-b]pyridine derivatives as non-anionic antiplatelet agents” (Eur J Med Chem, 2017)", "key": {"Platelet [1]": {"test_system": "Platelet", "test": "Antiplatelet activity in human platelet rich plasma assessed as inhibition of arachidonic acid-induced platelet aggregation at 100 uM preincubated for 2 mins followed by arachidonic acid addition by turbidimetric method relative to control", "type": "functional"}, "Plasma [2]": {"test_system": "Plasma", "test": "Change in activated partial thromboplastin time in human plasma at 100 uM incubated for 15 mins at room temperature and 2 mins at 37 degC in presence of CaCl2", "type": "ADME, cell-free"}, "Plasma [3]": {"test_system": "Plasma", "test": "Change in prothrombin time in human plasma at 100 uM incubated for 15 mins at room temperature and 2 mins at 37 degC in presence of calcium thromboplastin", "type": "ADME, cell-free"}, "Platelet [4]": {"test_system": "Platelet", "test": "Antiplatelet activity in human platelet rich plasma assessed as inhibition of collagen-induced platelet aggregation at 100 uM preincubated for 2 mins followed by collagen addition by turbidimetric method relative to control", "type": "cell-based"}, "Platelet [5]": {"test_system": "Platelet", "test": "Antiplatelet activity in human platelet rich plasma assessed as inhibition of epinephrine-induced platelet aggregation at 100 uM preincubated for 2 mins followed by epinephrine addition by turbidimetric method relative to control", "type": "cell-based"}, "Platelet [6]": {"test_system": "Platelet", "test": "Antiplatelet activity in human platelet rich plasma assessed as inhibition of ADP-induced platelet aggregation at 100 uM preincubated for 2 mins followed by ADP addition by turbidimetric method relative to control", "type": "cell-based"}}, "data": [{"smiles": "COc1ccc(/C=N/NC(=O)c2cc(C(F)(F)F)nc3c2c(C)nn3-c2ccccc2)cc1", "values": [{"measurement": "inhibition at 100 µM", "setting": "Platelet [1]", "result": 2.39, "unit": "%"}, {"measurement": "Activity", "setting": "Plasma [2]", "result": "Non-Toxic"}, {"measurement": "Activity", "setting": "Plasma [3]", "result": "Non-Toxic"}, {"measurement": "inhibition at 100 µM", "setting": "Platelet [4]", "result": 0, "unit": "%"}, {"measurement": "inhibition at 100 µM", "setting": "Platelet [5]", "result": 0, "unit": "%"}, {"measurement": "inhibition at 100 µM", "setting": "Platelet [6]", "result": 0, "unit": "%"}]}, {"smiles": "Cc1nn(-c2ccccc2)c2nc(C(F)(F)F)cc(C(=O)N/N=C/c3ccc(F)cc3)c12", "values": [{"measurement": "inhibition at 100 µM", "setting": "Platelet [1]", "result": 0, "unit": "%"}, {"measurement": "Activity", "setting": "Plasma [2]", "result": "Non-Toxic"}, {"measurement": "Activity", "setting": "Plasma [3]", "result": "Non-Toxic"}, {"measurement": "inhibition at 100 µM", "setting": "Platelet [4]", "result": 0.3, "unit": "%"}, {"measurement": "inhibition at 100 µM", "setting": "Platelet [5]", "result": 0, "unit": "%"}, {"measurement": "inhibition at 100 µM", "setting": "Platelet [6]", "result": 7.95, "unit": "%"}]}, {"smiles": "Cc1ccc(/C=N/NC(=O)c2cc(C(F)(F)F)nc3c2c(C)nn3-c2ccccc2)cc1", "values": [{"measurement": "inhibition at 100 µM", "setting": "Platelet [1]", "result": 0.27, "unit": "%"}, {"measurement": "Activity", "setting": "Plasma [2]", "result": "Non-Toxic"}, {"measurement": "Activity", "setting": "Plasma [3]", "result": "Non-Toxic"}, {"measurement": "inhibition at 100 µM", "setting": "Platelet [4]", "result": 7.84, "unit": "%"}, {"measurement": "inhibition at 100 µM", "setting": "Platelet [5]", "result": 0.71, "unit": "%"}, {"measurement": "inhibition at 100 µM", "setting": "Platelet [6]", "result": 0.27, "unit": "%"}]}, {"smiles": "Cc1nn(-c2ccccc2)c2nc(C(F)(F)F)cc(C(=O)N/N=C/c3ccccc3)c12", "values": [{"measurement": "inhibition at 100 µM", "setting": "Platelet [1]", "result": 0.27, "unit": "%"}, {"measurement": "Activity", "setting": "Plasma [2]", "result": "Non-Toxic"}, {"measurement": "Activity", "setting": "Plasma [3]", "result": "Non-Toxic"}, {"measurement": "inhibition at 100 µM", "setting": "Platelet [4]", "result": 0, "unit": "%"}, {"measurement": "inhibition at 100 µM", "setting": "Platelet [5]", "result": 14.1, "unit": "%"}, {"measurement": "inhibition at 100 µM", "setting": "Platelet [6]", "result": 5.98, "unit": "%"}]}, {"smiles": "Cc1cc(C(=O)N/N=C/c2ccc(C#N)cc2)c2c(C)nn(-c3ccccc3)c2n1", "values": [{"measurement": "inhibition at 100 µM", "setting": "Platelet [1]", "result": 24.4, "unit": "%"}, {"measurement": "Activity", "setting": "Plasma [2]", "result": "Non-Toxic"}, {"measurement": "Activity", "setting": "Plasma [3]", "result": "Non-Toxic"}, {"measurement": "inhibition at 100 µM", "setting": "Platelet [4]", "result": 1.68, "unit": "%"}, {"measurement": "inhibition at 100 µM", "setting": "Platelet [5]", "result": 0, "unit": "%"}, {"measurement": "inhibition at 100 µM", "setting": "Platelet [6]", "result": 33.6, "unit": "%"}]}, {"smiles": "COc1ccc(/C=N/NC(=O)c2cc(C)nc3c2c(C)nn3-c2ccccc2)cc1", "values": [{"measurement": "inhibition at 100 µM", "setting": "Platelet [1]", "result": 3.43, "unit": "%"}, {"measurement": "Activity", "setting": "Plasma [2]", "result": "Non-Toxic"}, {"measurement": "Activity", "setting": "Plasma [3]", "result": "Non-Toxic"}, {"measurement": "inhibition at 100 µM", "setting": "Platelet [4]", "result": 15, "unit": "%"}, {"measurement": "inhibition at 100 µM", "setting": "Platelet [5]", "result": 8.4, "unit": "%"}, {"measurement": "inhibition at 100 µM", "setting": "Platelet [6]", "result": 2.9, "unit": "%"}]}, {"smiles": "Cc1nn(-c2ccccc2)c2nc(C(F)(F)F)cc(C(=O)N/N=C/c3ccc(C#N)cc3)c12", "values": [{"measurement": "inhibition at 100 µM", "setting": "Platelet [1]", "result": 4.77, "unit": "%"}, {"measurement": "Activity", "setting": "Plasma [2]", "result": "Non-Toxic"}, {"measurement": "Activity", "setting": "Plasma [3]", "result": "Non-Toxic"}, {"measurement": "inhibition at 100 µM", "setting": "Platelet [4]", "result": 3.59, "unit": "%"}, {"measurement": "inhibition at 100 µM", "setting": "Platelet [5]", "result": 0, "unit": "%"}, {"measurement": "inhibition at 100 µM", "setting": "Platelet [6]", "result": 4.55, "unit": "%"}]}, {"smiles": "Cc1cc(C(=O)N/N=C/c2ccccc2)c2c(C)nn(-c3ccccc3)c2n1", "values": [{"measurement": "inhibition at 100 µM", "setting": "Platelet [1]", "result": 3.96, "unit": "%"}, {"measurement": "Activity", "setting": "Plasma [2]", "result": "Non-Toxic"}, {"measurement": "Activity", "setting": "Plasma [3]", "result": "Non-Toxic"}, {"measurement": "inhibition at 100 µM", "setting": "Platelet [4]", "result": 9.6, "unit": "%"}, {"measurement": "inhibition at 100 µM", "setting": "Platelet [5]", "result": 7, "unit": "%"}, {"measurement": "inhibition at 100 µM", "setting": "Platelet [6]", "result": 0, "unit": "%"}]}, {"smiles": "CCOc1ccc(/C=N/NC(=O)c2cc(C)nc3c2c(C)nn3-c2ccccc2)cc1", "values": [{"measurement": "inhibition at 100 µM", "setting": "Platelet [1]", "result": 1.26, "unit": "%"}, {"measurement": "Activity", "setting": "Plasma [2]", "result": "Non-Toxic"}, {"measurement": "Activity", "setting": "Plasma [3]", "result": "Non-Toxic"}, {"measurement": "inhibition at 100 µM", "setting": "Platelet [4]", "result": 0, "unit": "%"}, {"measurement": "inhibition at 100 µM", "setting": "Platelet [5]", "result": 0, "unit": "%"}, {"measurement": "inhibition at 100 µM", "setting": "Platelet [6]", "result": 1.69, "unit": "%"}]}, {"smiles": "Cc1nn(-c2ccccc2)c2nc(C(F)(F)F)cc(C(=O)N/N=C/c3ccc(Br)cc3)c12", "values": [{"measurement": "inhibition at 100 µM", "setting": "Platelet [1]", "result": 6.18, "unit": "%"}, {"measurement": "Activity", "setting": "Plasma [2]", "result": "Non-Toxic"}, {"measurement": "Activity", "setting": "Plasma [3]", "result": "Non-Toxic"}, {"measurement": "inhibition at 100 µM", "setting": "Platelet [4]", "result": 5.37, "unit": "%"}, {"measurement": "inhibition at 100 µM", "setting": "Platelet [5]", "result": 1.52, "unit": "%"}, {"measurement": "inhibition at 100 µM", "setting": "Platelet [6]", "result": 7.46, "unit": "%"}]}, {"smiles": "Cc1nn(-c2ccccc2)c2nc(C(F)(F)F)cc(C(=O)N/N=C/c3ccc(Cl)cc3)c12", "values": [{"measurement": "inhibition at 100 µM", "setting": "Platelet [1]", "result": 6.71, "unit": "%"}, {"measurement": "Activity", "setting": "Plasma [2]", "result": "Non-Toxic"}, {"measurement": "Activity", "setting": "Plasma [3]", "result": "Non-Toxic"}, {"measurement": "inhibition at 100 µM", "setting": "Platelet [4]", "result": 0, "unit": "%"}, {"measurement": "inhibition at 100 µM", "setting": "Platelet [5]", "result": 17, "unit": "%"}, {"measurement": "inhibition at 100 µM", "setting": "Platelet [6]", "result": 10.1, "unit": "%"}]}, {"smiles": "Cc1nn(-c2ccccc2)c2nc(C(F)(F)F)cc(C(=O)N/N=C/c3ccc([N+](=O)[O-])cc3)c12", "values": [{"measurement": "inhibition at 100 µM", "setting": "Platelet [1]", "result": 0, "unit": "%"}, {"measurement": "Activity", "setting": "Plasma [2]", "result": "Non-Toxic"}, {"measurement": "Activity", "setting": "Plasma [3]", "result": "Non-Toxic"}, {"measurement": "inhibition at 100 µM", "setting": "Platelet [4]", "result": 0, "unit": "%"}, {"measurement": "inhibition at 100 µM", "setting": "Platelet [5]", "result": 0, "unit": "%"}, {"measurement": "inhibition at 100 µM", "setting": "Platelet [6]", "result": 6.93, "unit": "%"}]}]}
